Assay results reported in US20260265687A1, “OCULAR ORGANOIDS” (KONINKLIJKE NEDERLANDSE AKADEMIE VAN WETENSCHAPPEN, priority 2023, published 2026).

Experiments:
[1] = test system: Herpes Simplex Virus 1 (HSV1); assay: HSV1 infection of organoid-derived conjunctival ALI cultures, viral titers by qPCR; assay type: cell-based; details: 10 μM Acyclovir in bottom compartment after virus incubation; 17-day-old human conjunctival ALI cultures; followed 96 hours
Experimental: To model HSV1 infection, we exposed the apical surface of fully differentiated 17-day-old ALI cultures for 3 hours to an HSV1 strain whose capsid protein VP26 was tagged with tdTomato (hereafter called HSV1-tdTomato, FIG. 6A). HSV1 titrer increased by 5 logs over the course of 96 hours after initial incubation with HSV1, implying a productive infection of the conjunctival ALI culture with HSV1 (FIG. 6B). In addition, we observed that the tdTomato signal increased over time in HSV1-infected ALI cultures when imaged using an Auto-EVOS microscope (Thermo Fisher Scientific) (Data not shown). […] Acyclovir, an inhibitor of HSV1 DNA polymerase, is commonly given to patients with HSV1-induced conjunctivitis. Indeed, the infection was blocked when ALI cultures were treated with 10 μM Acyclovir (FIG. 6A-B). Thus, organoid-derived ALI cultures support HSV1 infection and represent a human ocular surface model for HSV1 infection.
Human organoids (5-7 days after split) were harvested, trypsinized to single cells using 0.25% Trypsin/EDTA (ThermoFisher Scientific) for 5 minutes and 100,000 cells were seeded in 100 μL human expansion medium on 6.5 mm-wide transwells (Corning or Greiner). […]
Herpes Simplex Virus 1 containing endogenously tagged […] capsid protein with tdTomato (HSV1-tdTomato) was used. […] Viral titer quantification was performed as indicated below. […]

[2] = test system: human Adenovirus 8 (hAdV8); assay: hAdV8 infection of organoid-derived conjunctival ALI cultures, viral titers by qPCR and cytopathic effects; assay type: cell-based; details: 17-day-old conjunctival ALI cultures, up to 96 hours; for reversal of adenoviral (hAdV8) infection: 10 μM Acyclovir, 60 μM Cidofovir or 20 μM Nelfinavir
Source text: Adenoviruses are the leading cause of viral conjunctivitis. Yet, to date, no medication is available, partly because there is no model system for this type of ocular infection. An hAdV8 strain, isolated from a patient was provided by Dr. Nobuyo Yawata and Dr. Makoto Yawata (Kyushu University, Japan and NUS, Singapore) (see Yawata, N., and Yawata, M. 2022. Assessing the Response of Human NK Cell Subsets to Infection by Clinically Isolated Virus Strains. Methods Mol Biol 2463, 205-220. https://doi.org/10.1007/978-1-0716-2160-8_15). hAdV8 was added to 17-day-old conjunctival ALI cultures (FIG. 6E). Conjunctival ALI cultures were readily infected by hAdV8, as confirmed by the viral titre measured by qPCR (not shown). CPEs were visible starting from 48 hours after infection: infected cells darkened and were extruded from the epithelium. We then tested several antiviral drugs experimentally applied for adenoviral conjunctivitis (Acyclovir, Cidofovir and Nelfinavir) to test their efficacy in blocking the infection.
Human organoids (5-7 days after split) were harvested, trypsinized to single cells using 0.25% Trypsin/EDTA (ThermoFisher Scientific) for 5 minutes and 100,000 cells were seeded in 100 μL human expansion medium on 6.5 mm-wide transwells (Corning or Greiner). Human expansion medium was added to the lower compartment. After 3 to 4 days, when cells had reached confluency, medium from the upper compartment was removed to lift the cultures to air-liquid interface (ALI). The ALI cultures were maintained up to 22 days. The medium in the bottom compartment was changed every 3-4 days.
An hAdV8 strain isolated from a patient was used. Similar to HSV1 infection, hAdV8 at MOI 10 was added to the ALI culture in 50 μL PBS for 3 hours, before being washed away. Every 24 hours, the shed viruses were collected in 100 μL PBS and stored until further processing. If indicated, 10 μM Acyclovir (PHR1254, Sigma-Aldrich), 60 μM Cidofovir (C5874, Sigma-Aldrich) or 20 μM Nelfinavir (PZ0013, Sigma-Aldrich) was added to the bottom compartment after incubating with the virus. hAdV8-infected ALI cultures were kept for up to 4 days and, if required, fixed.
At the time of processing of the pellets for organoids and supernatants for ALI cultures, DNA was extracted using Zymogen Quick-DNA Microprep kit (ZY-D3020, Zymogen). DNA was systematically resuspended in 15 μL nuclease-free water (QIAGEN). Viral DNA was then quantified by qPCR as follow: 5 μL of the DNA extract was mixed together with 5 μL of SYBR green (Bio-Rad) containing HSV1 detection primers (HSV1-F: […] (SEQ ID NO: 13) and HSV1-R: […] (SEQ ID NO: 14)) or hAdV8 detection primers (hAdV8-F: […] (SEQ ID NO: 15) and hAdV8-R: […] (SEQ ID NO: 16). The SYBR green was mixed with 10 μM primer mix at a ratio 10:1. Technical duplicates were assessed by qPCR. The following program was used for viral DNA amplification: 95° C. for 2 minutes, followed by 40 cycles of 98° C. for 15 seconds, 60° C. for 15 seconds and 72° C. for 15 seconds. For quantifying the viral DNA content in ALI supernatants, we amplified 179 bp of HSV1-tdTomato genome using HSV1-F and HSV1-R and 1004 bp of the hAdV8 genome using hAdV8-F and hAdV8-R. We cloned both in a pJet vector (Thermo Fisher Scientific) and used it to make a standard curve ranging from 2.104 to 2.109 copies of viral genome according to Addgene instructions (https://www.addgene.org/protocols/aav-titration-qpcr-using-sybr-green-technology/). […]

SMILES | HSV1 infection (HSV1 titers detected by qPCR) [1] | reversal of adenoviral (hAdV8) infection [2] | cytopathic effects (CPEs) after hAdV8 infection ([2]; 60 μM Cidofovir) | hAdV8 viral titre (qPCR) ([2]; 60 μM Cidofovir)
Nc1nc2c(ncn2COCCO)c(=O)[nH]1 [Acyclovir] | blocked | only Cidofovir could reverse adenoviral infection |  | 
Cc1c(O)cccc1C(=O)N[C@@H](CSc1ccccc1)[C@H](O)CN1C[C@H]2CCCC[C@H]2C[C@H]1C(=O)NC(C)(C)C [Nelfinavir] |  | only Cidofovir could reverse adenoviral infection |  | 
Nc1ccn(C[C@@H](CO)OCP(=O)(O)O)c(=O)n1 [Cidofovir] |  | could reverse adenoviral infection | absence | decrease
